The source of these data is PubChem BioAssay AID504928 (The Scripps Research Institute Molecular Screening Center, 2011).

Among the test systems are SKBR Cell Line; HS578 Cell Line; Raji Cell Line; MCF7 Cell Line; MD-MDA-231 Cell Line; 70Z/3 Cell Line; Jurkat Cell Line; T47D Cell Line; EuMyc Lymphoma Cell Line; 9E10 Cell Line.
Common to all, as to experiment: cell viability loss in various cell types – MTT absorbance, EuMyc, HS578, 70Z/3, T47D, SKBR, late-stage follow-up (AID 504928)
Holding throughout (details): tumor cell line panel viability, at 10 µM, active compounds read low

Activity calls are given as the source filed them. The rule behind the calls is not given here.

For the molecule `O=c1cc(N2CCN(c3cccc(Cl)c3)CC2)[nH]c(=O)n1C1CCCCC1`, the viability fold change in the experiment on SKBR Cell Line is 0.19; with HS578 Cell Line, 0.16; with Raji Cell Line, 0.19; in the experiment with MCF7 Cell Line, 0.17; in the experiment with MD-MDA-231 Cell Line, 0.11; in the experiment on 70Z/3 Cell Line, 0.5. Further, the viability fold change in the experiment with Jurkat Cell Line is 0.19; in the experiment with T47D Cell Line it was 0.19; in the experiment with EuMyc Lymphoma Cell Line, 0.63 (inactive); in the experiment with 9E10 Cell Line, 0.8 (inactive).
